Assay results reported in US20220402935A1, “HETEROCYCLIC COMPOUND” (FIMECS, INC., priority 2019, published 2022).

How the values were obtained:
[1] = molecular target: T1, human XIAP_BIR3 domain purified protein (Homo sapiens, UniProt P98170); test: XIAP binding inhibitory activity (HTRF, b-Smac ligand); details: second symbol of cell; read-out: XIAP binding inhibition IC50 value
T1 construct: purchased R & D
Experimental: Human XIAP binding inhibitory activity was measured by the Homogeneous Time Resolved Fluorescence (HTRF) method with using commercially available human XIAP_BIR3 domain purified protein (R & D) and as a ligand a Smac N-terminal peptide (AVPIAQK (SEQ ID NO: 1)) (hereinafter referred to as “b-Smac”; Peptide Research Laboratories, Inc.) biotinylated at the C-terminus according to a conventional method.
The HTRF method will be described in detail below.
The test compound diluted with a reaction buffer (25 mM HEPES Buffer containing 100 mM NaCl, 0.1% BSA, and 0.1% triton X-100, pH 7.5) was added to a 384-well white shallow bottom plate (Greiner 784076) at 1 μL/well and flash centrifuged for 30 seconds. Subsequently, human XIAP_BIR3 domain purified protein was diluted with the reaction buffer to obtain a 90 nM sample diluent, and the resultant sample diluent was added to the above-mentioned white superficial plate at 4.5 μL/well and flash centrifuged for 30 seconds. Subsequently, b-Smac diluted to 90 nM with the reaction buffer was added to the above-mentioned white superficial plat at 4.5 μL/well and flash centrifuged for 30 seconds. A mixed solution of Anti-6 HIS-Cryptate (Eu^3+ Cryptate-conjugated mouse monoclonal antibody anti-6 Histidine; cisbio) and Streptavidin-XL^eat (Highgrade XL665-conjugated streptavidin; cisbio) both diluted 100-fold with HTRF detection buffer (cisbio) at a volume ratio of 1:1 was added to the above white superficial plate at 10 μL/well. After flash centrifuging the white shallow bottom plate for 30 seconds, the white shallow bottom plate was left at room temperature for 4 hours or more in the dark. The white superficial plate after being left was subjected to fluorescence intensity measurement (excitation wavelength: 320 nm, fluorescence wavelength: 665 nm and 615 nm) by EnVision (Perkin Elmer). The binding inhibition rate (%) was calculated based on the HTRF ratio in the presence of the test compound to the HTRF ratio in the absence of the test compound (fluorescence intensity at 665 nm/fluorescence intensity at 615 nm).
The XIAP binding inhibition rate (%) of test compounds was evaluated.

IRAK-M = molecular target: T2, IRAK-M (Homo sapiens, UniProt Q9Y616); test: IRAK-M binding inhibitory activity (KINOMEscan active site-dependent competitive assay); parameters: purchased Eurofins Discover X; details: for IC50: second symbol of cell, read-out: IRAK-M binding inhibition IC50 value; for remaining binding at 1 µM: concentration of the test compound 1 μM, first symbol of cell, read-out: IRAK-M binding inhibition activity % Ctrl
T2 sequence (Q9Y616 1-596): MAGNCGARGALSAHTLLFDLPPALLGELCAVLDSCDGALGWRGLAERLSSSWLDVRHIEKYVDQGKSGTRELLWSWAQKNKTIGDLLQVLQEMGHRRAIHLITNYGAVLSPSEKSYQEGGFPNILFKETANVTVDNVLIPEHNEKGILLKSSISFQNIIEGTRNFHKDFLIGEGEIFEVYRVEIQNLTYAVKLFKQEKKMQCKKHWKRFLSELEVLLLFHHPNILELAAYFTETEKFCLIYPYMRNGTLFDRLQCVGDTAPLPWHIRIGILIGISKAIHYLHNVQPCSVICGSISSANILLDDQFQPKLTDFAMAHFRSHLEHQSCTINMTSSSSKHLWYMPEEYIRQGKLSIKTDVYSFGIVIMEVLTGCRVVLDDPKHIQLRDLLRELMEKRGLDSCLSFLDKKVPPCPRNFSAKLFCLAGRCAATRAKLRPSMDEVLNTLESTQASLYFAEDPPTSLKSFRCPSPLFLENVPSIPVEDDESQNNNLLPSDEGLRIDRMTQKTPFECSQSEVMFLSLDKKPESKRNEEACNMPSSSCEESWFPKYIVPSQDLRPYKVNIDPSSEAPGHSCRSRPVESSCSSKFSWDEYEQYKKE
How it was run: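 Readout given as % Ctrl, with DMSO as 100% and a control compound as 0%, scaling the test compound signal between them. Binding to human IRAK-M was assessed by KINOMEscan competition at the kinase active site.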

T1 sequence (P98170 252-356 limits assumed): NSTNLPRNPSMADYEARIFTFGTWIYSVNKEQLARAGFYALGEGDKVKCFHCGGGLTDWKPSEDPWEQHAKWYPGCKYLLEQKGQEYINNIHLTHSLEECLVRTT

| IC50 [1] [µM] | IC50 (IRAK-M) [µM] | remaining binding at 1 µM (IRAK-M) [%] | Compound |
| --- | --- | --- | --- |
| 0.3 to 3 | 0.1 to 0.3 | – | CN[C@@H](C)C(=O)N[C@H](C(=O)N1CCN(C(=O)c2c(C(=O)N(C)CCOCCOCCOc3cc(CN4CCC(Oc5ccnc6ccsc56)CC4)on3)c3cc(F)ccc3n2C)CC1)C1CCCCC1 [Example 3, 2-(4-((S)-2-cyclohexyl-2-((S)-2-(methylamino)propanamido)acetyl)piperazine-1-carbonyl)-5-fluoro-N,1-dimethyl-N-(2-(2-(2-((5-((4-(thieno[3,2-b]pyridin-7-yloxy)piperidin-1-yl)methyl)isoxazol-3-yl)oxy)ethoxy)ethoxy)ethyl)-1H-indole-3-carboxamide] |
| 0.3 to 3 | 0.3 to 1 | – | CN[C@@H](C)C(=O)N[C@H](C(=O)N1CCN(C(=O)c2c(C(=O)NCCOCCOc3cc(CN4CCC(Oc5ccnc6ccsc56)CC4)on3)c3cc(F)c(F)cc3n2C)CC1)C1CCCCC1 [Example 4, 2-(4-((S)-2-cyclohexyl-2-((S)-2-(methylamino)propanamido)acetyl)piperazine-1-carbonyl)-5,6-difluoro-1-methyl-N-(2-(2-((5-((4-(thieno[3,2-b]pyridin-7-yloxy)piperidin-1-yl)methyl)isoxazol-3-yl)oxy)ethoxy)ethyl)-1H-indole-3-carboxamide] |
| 0.3 to 3 | 0.3 to 1 | – | CN[C@@H](C)C(=O)N[C@H](C(=O)N1CCN(C(=O)c2c(C(=O)NCCOCCOCCOc3cc(CN4CCC(Oc5ccnc6ccsc56)CC4)on3)c3cc(F)c(F)cc3n2C)CC1)C1CCCCC1 [Example 5, 2-(4-((S)-2-cyclohexyl-2-((S)-2-(methylamino)propanamido)acetyl)piperazine-1-carbonyl)-5,6-difluoro-1-methyl-N-(2-(2-(2-((5-((4-(thieno[3,2-b]pyridin-7-yloxy)piperidin-1-yl)methyl)isoxazol-3-yl)oxy)ethoxy)ethoxy)ethyl)-1H-indole-3-carboxamide] |
| 0.3 to 3 | 0.1 to 0.3 | – | CN[C@@H](C)C(=O)N[C@H](C(=O)N1CCN(C(=O)c2c(C(=O)NCCOCCOCCOCCOc3cc(CN4CCC(Oc5ccnc6ccsc56)CC4)on3)c3cc(F)c(F)cc3n2C)CC1)C1CCCCC1 [Example 6, 2-(4-((S)-2-cyclohexyl-2-((S)-2-(methylamino)propanamido)acetyl)piperazine-1-carbonyl)-5,6-difluoro-1-methyl-N-(2-(2-(2-(2-((5-((4-(thieno[3,2-b]pyridin-7-yloxy)piperidin-1-yl)methyl)isoxazol-3-yl)oxy)ethoxy)ethoxy)ethoxy)ethyl)-1H-indole-3-carboxamide] |
| 0.3 to 3 | – | 25 to 50 | CN[C@@H](C)C(=O)N[C@H](C(=O)N1CCN(C(=O)c2c(C(=O)NCCOCCOCCOc3cc(CN4CCC(Oc5ccnc6ccsc56)CC4)n(C)n3)c3cc(F)c(F)cc3n2C)CC1)C1CCCCC1 [Example 7, 2-(4-((S)-2-cyclohexyl-2-((S)-2-(methylamino)propanamido)acetyl)piperazine-1-carbonyl)-5,6-difluoro-1-methyl-N-(2-(2-(2-((1-methyl-5-((4-(thieno[3,2-b]pyridin-7-yloxy)piperidin-1-yl)methyl)-1H-pyrazol-3-yl)oxy)ethoxy)ethoxy)ethyl)-1H-indole-3-carboxamide] |
| 0.3 to 3 | 0.03 to 0.1 | – | CN[C@@H](C)C(=O)N[C@H](C(=O)N1CCN(C(=O)c2c(C(=O)NCCOCCOCCOc3cc(CN4CCC(Oc5ccnc6cc(C)sc56)CC4)on3)c3cc(F)c(F)cc3n2C)CC1)C1CCCCC1 [Example 8, 2-(4-((S)-2-cyclohexyl-2-((S)-2-(methylamino)propanamido)acetyl)piperazine-1-carbonyl)-5,6-difluoro-1-methyl-N-(2-(2-(2-((5-((4-((2-methylthieno[3,2-b]pyridin-7-yl)oxy)piperidin-1-yl)methyl)isoxazol-3-yl)oxy)ethoxy)ethoxy)ethyl)-1H-indole-3-carboxamide] |
| 0.3 to 3 | 0.03 to 0.1 | – | CN[C@@H](C)C(=O)N[C@H](C(=O)N1CCN(C(=O)c2c(C(=O)NCCOCCOCCOc3cc(C(C)N4CCC(Oc5ccnc6cc(C)sc56)CC4)on3)c3cc(F)c(F)cc3n2C)CC1)C1CCCCC1 (stereo partly drawn) [Example 9, 2-(4-((S)-2-cyclohexyl-2-((S)-2-(methylamino)propanamido)acetyl)piperazine-1-carbonyl)-5,6-difluoro-1-methyl-N-(2-(2-(2-((5-(1-(4-((2-methylthieno[3,2-b]pyridin-7-yl)oxy)piperidin-1-yl)ethyl)isoxazol-3-yl)oxy)ethoxy)ethoxy)ethyl)-1H-indole-3-carboxamide] |
| 0.3 to 3 | – | 25 to 50 | CN[C@@H](C)C(=O)N[C@H](C(=O)N1CCN(C(=O)c2c(C(=O)NCCOCCOCCOc3cc(CN4CCC(Oc5ccnc6ccsc56)CC4)on3)c3cc(F)c(F)cc3n2C)C[C@H]1C)C1CCCCC1 [Example 10, 2-((R)-4-((S)-2-cyclohexyl-2-((S)-2-(methylamino)propanamido)acetyl)-3-methylpiperazine-1-carbonyl)-5,6-difluoro-1-methyl-N-(2-(2-(2-((5-((4-(thieno[3,2-b]pyridin-7-yloxy)piperidin-1-yl)methyl)isoxazol-3-yl)oxy)ethoxy)ethoxy)ethyl)-1H-indole-3-carboxamide] |
| 3 to 30 | – | < 25 | CN[C@@H](C)C(=O)N[C@H](C(=O)N1CCN(C(=O)c2c(C(=O)N(C)CCOCCOCCOc3cc(CN4CCC(Oc5ccnc6ccsc56)CC4)on3)c3cc(F)c(F)cc3n2C)C[C@H]1C)C1CCCCC1 [Example 11, 2-((R)-4-((S)-2-cyclohexyl-2-((S)-2-(methylamino)propanamido)acetyl)-3-methylpiperazine-1-carbonyl)-5,6-difluoro-N,1-dimethyl-N-(2-(2-(2-((5-((4-(thieno[3,2-b]pyridin-7-yloxy)piperidin-1-yl)methyl)isoxazol-3-yl)oxy)ethoxy)ethoxy)ethyl)-1H-indole-3-carboxamide] |
| < 0.3 | – | < 25 | CN[C@@H](C)C(=O)N[C@H](C(=O)N1CCN(C(=O)c2c(C(=O)NCCOCCOCCOc3cc(CN4CCC(Oc5ccnc6ccsc56)CC4)on3)c3cc(F)c(OC)cc3n2C)CC1)C1CCCCC1 [Example 13, 2-(4-((S)-2-cyclohexyl-2-((S)-2-(methylamino)propanamido)acetyl)piperazine-1-carbonyl)-5-fluoro-6-methoxy-1-methyl-N-(2-(2-(2-((5-((4-(thieno[3,2-b]pyridin-7-yloxy)piperidin-1-yl)methyl)isoxazol-3-yl)oxy)ethoxy)ethoxy)ethyl)-1H-indole-3-carboxamide] |
| 3 to 30 | – | < 25 | CN[C@@H](C)C(=O)N[C@H](C(=O)N1CCN(C(=O)c2c(C(=O)N(C)CCOCCOCCOc3cc(CN4CCC(Oc5ccnc6ccsc56)CC4)on3)c3cc(F)ccc3n2C)CC1)[C@H](O)C(C)C [Example 14, 5-fluoro-2-(4-((2S,3R)-3-hydroxy-4-methyl-2-((S)-2-(methylamino)propanamido)pentanoyl)piperazine-1-carbonyl)-N,1-dimethyl-N-(2-(2-(2-((5-((4-(thieno[3,2-b]pyridin-7-yloxy)piperidin-1-yl)methyl)isoxazol-3-yl)oxy)ethoxy)ethoxy)ethyl)-1H-indole-3-carboxamide] |
